Numbers after ± are expanded uncertainties.
Assay: mn = molality of the nth substance listed, in mol/kg
Conditions: 308.15 K, 100 kPa, Liquid, m1 = 0.0148

- speed of sound (Single path-length method): 1521.4 ± 0.7 m/s
- mass density (Vibrating tube method): 995.9 ± 10 kg/m3
Compound: O=S(=O)([O-])[O-].[Ca+2] [calcium sulfate] + O

— the NIST ThermoML archive (doi:10.1021/acs.jced.9b00354)
